Bridges are numbered along the chain shown (N, C = ends). [ ]: non-standard residue; d: D form. R8 = C=CCCCCCC[C@@](C)(N)C(=O)O; S5 = C=CCCC[C@](C)(N)C(=O)O; FAM = carboxyfluorescein
Tests used:
[1] = target: T1, Mdm2 (1-125) (Homo sapiens, UniProt Q00987); assay: competitive fluorescence polarization/anisotropy, apparent Kd against Mdm2; assay type: binding
T1 construct: Mdm2 (1-125) and Mdm4 (1-125) were ligated into the GST fusion expression vector pGEX-6P-1; GST (N, cleaved yes); made in house; host or cells: E. coli BL21 DE3
T1 sequence (Q00987 1-125): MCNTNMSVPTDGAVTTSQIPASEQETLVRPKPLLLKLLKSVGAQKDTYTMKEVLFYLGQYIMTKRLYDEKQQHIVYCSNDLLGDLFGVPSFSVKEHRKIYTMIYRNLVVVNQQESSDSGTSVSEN
Method: (§1) The cells expressing the GST fusion constructs were grown in LB medium at 37° C. to an OD600 of ˜0.6 and induction was started with 1 mM IPTG and carried out overnight at room temperature. Cells were harvested by centrifugation and the cell pellets were re-suspended in 50 mM Tris pH 8.0, 10% sucrose and were then sonicated. The sonicated sample was centrifuged for 60 mins at 17,000 g at 4° C. […] The column was then further washed by 6 volumes of wash buffer. Mdm2 and Mdm4 were then purified from the column by cleavage with Precission (GE Lifesciences) protease. 10 units of precission protease, in one column volume of PBS with 1 mM DTT buffer, were injected onto the column. The cleavage reaction was allowed to proceed overnight at 4° C. The cleaved protein was then eluted of the column with wash buffer. Protein fractions were analyzed with SDS page gel and concentrated using a Centricon (3.5 kDa MWCO) concentrator, Millipore. Mdm2 and Mdm4 protein samples were then dialyzed into a buffer solution containing 20 mM Bis-Tris, pH 6.5, 0.05M NaCl with 1 mM DTT and loaded onto a monoS column pre-equilibrated in buffer A (20 mM Bis-Tris, pH 6.5, 1 mM DTT). The column was then washed in 6 column volumes of buffer A and bound protein was eluted with a linear gradient of 1M NaCL over 25 column volumes. Protein fractions were analyzed with SDS page gel and concentrated using a Centricon (3.5 kDa MWCO) concentrator from Millipore.
(§2) Apparent Kd values were determined for a variety of molecules via competitive fluorescence anisotropy experiments. […] The competing molecules were then titrated against complex of the FAM labelled peptide and protein. Apparent Kd values were determined by fitting the experimental data to the equations shown below:
(§3) [L]st and [L]t denote labelled ligand and total unlabelled ligand input concentrations, respectively. Kd2 is the dissociation constant of the interaction between the unlabelled ligand and the protein. In all competitive types of experiments, it is assumed that [P]t>[L]st, otherwise considerable amounts of free labelled ligand would always be present and would interfere with measurements. […] The FAM-labelled peptide were dissolved in DMSO at 1 mM and diluted into experimental buffer. Readings were carried out with a Envision Multilabel Reader (PerkinElmer). […] All titrations were carried out in triplicate. Curve-fitting was carried out using Prism 4.0 (GraphPad).

[2] = target: T2, Mdm4 (1-125) (Homo sapiens, UniProt O15151); assay: competitive fluorescence polarization/anisotropy, apparent Kd against Mdm4; assay type: binding
T2 construct: Mdm4 (1-125) were ligated into the GST fusion expression vector pGEX-6P-1; GST (N, cleaved yes); made in house; host or cells: E. coli BL21 DE3
T2 sequence (O15151 1-125): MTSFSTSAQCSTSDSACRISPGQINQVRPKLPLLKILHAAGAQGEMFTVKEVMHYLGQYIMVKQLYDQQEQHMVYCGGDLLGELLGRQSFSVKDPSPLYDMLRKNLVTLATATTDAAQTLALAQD
Method: as §1, §2, §3

[3] = test system: p53 responsive LacZ reporter gene in T22 cell line; assay: T22 p53 β-galactosidase based reporter assay; assay type: cell-based, murine; conditions: for p53 transcriptional activity in T22 p53 reporter assay: 18 hours, DMEM with 10% FBS
Method: T22 cells, which were stably transfected with a p53 responsive […] reporter, were seeded into 96-well plate at a cell density of 8000 cells per well. […] Measurements were carried out using a Safire II multiplate reader (TECAN). Experiments were carried out independently twice.

[4] = target: T3, interaction of p53 with Mdm2 in living BHK cells (Homo sapiens, UniProt Q00987); assay: F2H co-localization assay p53:Mdm2; assay type: cell-based; conditions: 0 to 50 μM
T3 construct: the prey is a fusion of either Mdm2 (7-134) or Mdm4 (1-129) with RFP; host or cells: transgenic BHK cells with lac operator repeats
T3 sequence (Q00987 7-134): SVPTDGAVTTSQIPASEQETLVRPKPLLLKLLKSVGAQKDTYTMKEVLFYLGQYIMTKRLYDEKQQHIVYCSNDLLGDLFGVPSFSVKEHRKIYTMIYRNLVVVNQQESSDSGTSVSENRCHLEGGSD

[5] = target: T4, interaction of p53 with Mdm4 in living BHK cells (Homo sapiens, UniProt O15151); assay: F2H co-localization assay p53:Mdm4; assay type: cell-based; conditions: 0 to 50 μM
T4 construct: Mdm4 (1-129) with RFP; host or cells: transgenic BHK cells with lac operator repeats
T4 sequence (O15151 1-129): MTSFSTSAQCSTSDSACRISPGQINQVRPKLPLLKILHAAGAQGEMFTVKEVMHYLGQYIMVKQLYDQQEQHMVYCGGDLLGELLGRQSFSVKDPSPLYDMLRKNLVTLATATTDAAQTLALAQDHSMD

[6] = test system: HCT-116 p53+/+ cells; assay: HCT-116 Western blot analysis; assay type: cell-based; conditions: 6 hours, with or without fetal calf serum, FIG. 2d
Method: Cells were treated with various compounds/vehicle controls at the time points and concentrations indicated also in acoy's media with 10% FBS. Cells were rinsed with PBS and then harvested in 200 μl of 1× NuPAGE LDS sample buffer supplied by Invitrogen (NP0008). Samples were then sonicated, heated to 90° C. for 5 mins, sonicated twice for 10 s and centrifuged at 13, 000 rpm for 5 minutes. Protein concentrations were measured by BCA assay (Pierce). Western blots were then performed using antibodies against actin (AC-15, Sigma) as a loading control, p21 (118 mouse monoclonal), Mdm2 (4B2 mouse monoclonal) and p53 (DO-1 mouse monoclonal).

[7] = test system: HCT-116 p53+/+ cells; assay: cell viability (CellTiter-Glo), HCT-116 p53+/+; assay type: cell-based; conditions: 24 hours
From the text: (§4) Data was normalized to vehicle-treated controls.

[8] = test system: HCT-116 p53−/− cells; assay: cell viability (CellTiter-Glo), HCT-116 p53−/−; assay type: cell-based; conditions: 24 hours
From the text: as §4

[9] = test system: HCT-116 p53+/+ cells; assay: Caspase-Glo 3/7 assay, HCT-116 p53+/+; assay type: cell-based; conditions: 24 hours
From the text: as §4

[10] = test system: HCT-116 p53−/− cells; assay: Caspase-Glo 3/7 assay, HCT-116 p53−/−; assay type: cell-based; conditions: 24 hours
From the text: as §4

[11] = test system: HCT116 p53+/+ cells; assay: cell cycle analysis (propidium iodide flow cytometry); assay type: cell-based; conditions: 24 hours; for cell cycle distribution at high concentrations: high concentration (FIG. 5); for cell cycle distribution at low concentrations: low concentration (FIG. 4c)
Method: Three hundred fifty thousand cells were then seeded per well in 6-well plates containing incubated overnight. […] A 1% DMSO vehicle control treatment was also carried out. Cells were washed with PBS and then detached from the plate surface by trypsinisation. […] Cells were spun down and resuspended with PI-staining solution containing RNase A. Cells were analyzed using an LSR II (Becton Dickinson).

[12] = test system: thymocytes from p53 wild-type mice; assay: cell viability in mouse thymocytes, p53 wild-type; assay type: cell-based; conditions: p53 wild-type vs p53 deficient mice, 24 hours, annexin V/PI
Method: Thymocytes were isolated from wild-type and p53^+/−mice (age 4-9 weeks) and kept in a PBS/FCS (2%) solution (ref). Cells were plated at a density of 1×10^6 per well in 24-well plates in medium [DMEM/Hepes (25 mM, pH 7.2), 5% FCS, penicillin/streptomycin, glutamine] and incubated at 37° C. with 2% C02. […] Cell were then analysed for viability using this procedure, cells were washed with cold PBS, and stained with FITC-labeled annexin V antibody (PharMingen) and PI (Sigma). The relative amounts of apoptotic cells were determined by binding of annexin V and subsequent fluorescence-activated cell sorter analysis. All values were normalized to the number of cells remaining viable in vehicle (1% DMSO) treated cultures derived from the same animal stained simultaneously. Data are representatives of n=4 independent experiments.

[13] = test system: p53 null thymocytes; assay: cell viability in mouse thymocytes, p53 null; assay type: cell-based, mice; conditions: high doses, 24 hours, annexin V/PI
[14] = test system: SJSA-1 cell line; assay: caspase 3/7 activity in SJSA-1 cell line; conditions: SJSA-1 cells, titration
[15] = target: T5, Mdm2 (1-125) (human, UniProt Q00987 1-125); assay: competitive fluorescence polarization
T5 construct: range 1-125; also called Hdm2
T5 sequence (Q00987 1-125 limits assumed): as the sequence (Q00987 1-125) above

[16] = target: T6, Mdm4 (1-125) (human, UniProt O15151 1-125); assay: competitive fluorescence polarization
T6 construct: range 1-125; also called MDMX; Hdm4
T6 sequence (looked up): T2 sequence (O15151 1-125)

[17] = target: T5, Mdm2 (1-125); assay: apparent Kd, competitive fluorescence polarization; displacement of FAM-…-NH2 from Mdm2 (1-125)
[18] = target: T6, Mdm4 (1-125); assay: apparent Kd, competitive fluorescence polarization; displacement of FAM-…-NH2 from Mdm4 (1-125)
[19] = target: T6, Mdm4 (1-125); assay: direct fluorescence anisotropy titration of Mdm4 (1-125) against 50 nM labelled peptide, 1:1 model

CC(=O)N[C@H](C(=O)N[C@@H](CO)C(=O)N[C@@H](Cc1ccccc1)C(=O)N[C@]1(C)CCCCCCC=CCCC[C@@](C)(C(N)=O)NC(=O)[C@H](CC(C)C)NC(=O)[C@H](CC(C)C)NC(=O)[C@H](C)NC(=O)[C@H](Cc2c[nH]c3ccccc23)NC(=O)[C@H](Cc2ccc(O)cc2)NC(=O)[C@H](CCC(=O)O)NC1=O)[C@@H](C)O [sMTide-02, Ac-^1TSFXEYWALLX^11-NH2]
increase in Kd against Mdm2 in comparison to unstapled counterpart ([1]; stapled vs unstapled peptide): negligible increase | Kd [2]: 0.0457 ± 0.00765 µM | increase in Kd against Mdm4 in comparison to unstapled counterpart ([2]; stapled vs unstapled peptide): 2 fold | p53 transcriptional activity in T22 p53 reporter assay [3]: strongest p53 transcriptional response ever seen in this assay | effect of PGP inhibitor PSC-883 on p53 response in the reporter assay ([3]; with 20 μM PSC-883 vs without): significantly improved the sensitivity of the p53 response | disruption of p53 interaction with Mdm2 (F2H) [4]: dissociate Mdm2 from p53 | disruption of p53 interaction with Mdm4 (F2H) [5]: greater potency against Mdm4 | effect of serum on activity [6]: significantly improved potency in the absence of serum | cell viability [7]: no significant decrease in the viability | cell viability [8]: no significant decrease in the viability | caspase 3/7 activity [9]: negligible caspase 3/7 activity | caspase 3/7 activity [10]: negligible caspase 3/7 activity | cell cycle distribution at high concentrations [11]: G2 arrest | cell cycle distribution at low concentrations [11]: G2 arrest | cell death in thymocytes [12]: induced cell death in a p53-dependent manner | apoptosis in p53 null thymocytes [13]: did not | induction of caspase 3/7 activity [14]: induced caspase 3/7 activity at substantially higher concentrations than nutlin

CC(=O)N[C@H](C(=O)N[C@@H](CO)C(=O)N[C@@H](Cc1ccccc1)C(=O)N[C@]1(C)CCCCCCC=CCCC[C@@](C)(C(N)=O)NC(=O)[C@H](CC(C)C)NC(=O)[C@H](CC(C)C)NC(=O)[C@H](C)NC(=O)[C@H](Cc2c[nH]c3cc(Cl)ccc23)NC(=O)[C@H](Cc2ccc(O)cc2)NC(=O)[C@H](CCC(=O)O)NC1=O)[C@@H](C)O [sMTide-02A, Ac-^1TSFXEY(L-6-Cl)WALLX^11-NH2]
preference between Mdm2 and Mdm4 in binding ([1]; comparison of apparent Kds): preference for Mdm2 over Mdm4 | Mdm4 Kd ([2]; apparent Kd, competitive fluorescence polarization, Mdm4 75 nM, FAM peptide 50 nM): significantly attenuated | p53 transcriptional activity in T22 p53 reporter assay [3]: much higher fold induction of p53 transcriptional activity than the unmodified sMTide-02 | disruption of p53 interaction with Mdm2 (F2H) [4]: dissociate Mdm2 from p53 | effect of serum on activity [6]: significantly improved potency in the absence of serum | cell viability [7]: no significant decrease in the viability | cell viability [8]: no significant decrease in the viability | caspase 3/7 activity [9]: negligible caspase 3/7 activity | caspase 3/7 activity [10]: negligible caspase 3/7 activity | cell cycle distribution at high concentrations [11]: G2 arrest | cell cycle distribution at low concentrations [11]: G2 arrest | cell death in thymocytes [12]: induced cell death in a p53-dependent manner | apoptosis in p53 null thymocytes [13]: to a certain extent | induction of caspase 3/7 activity [14]: induced caspase 3/7 activity at substantially higher concentrations than nutlin

B1: sMTide-01 (peptide)
peptide: Ac-TSF[R8]EYWNLL[S5]-NH2
modifications: staple 4-11
SMILES: CC(=O)N[C@H](C(=O)N[C@@H](CO)C(=O)N[C@@H](Cc1ccccc1)C(=O)N[C@]1(C)CCCCCCC=CCCC[C@@](C)(C(N)=O)NC(=O)[C@H](CC(C)C)NC(=O)[C@H](CC(C)C)NC(=O)[C@H](CC(N)=O)NC(=O)[C@H](Cc2c[nH]c3ccccc23)NC(=O)[C@H](Cc2ccc(O)cc2)NC(=O)[C@H](CCC(=O)O)NC1=O)[C@@H](C)O
notes: Stapled derivative of MTide-01; also called Ac-TSFXEYWNLLX-NH2
fold increase in Kd against its unstapled counterpart (MTide-01) [15]: ~2 fold | fold increase in Kd against its unstapled counterpart (MTide-01) [16]: ~4 fold | Kd [17]: 0.087 µM | Kd [18]: 0.118 µM

B2: carboxyfluorescein (FAM) labelled 12-1 peptide (FAM-RFMDYWEGL-NH2) (peptide)
peptide: {FAM}-RFMDYWEGL-NH2
notes: Labelled probe of the fluorescence anisotropy assays; also called FAM labeled probe
Kd [19]: 0.0042 µM

Reference: patent US20150246946A1, “PEPTIDES AND METHODS FOR TREATING CANCER” (AGENCY FOR SCIENCE, TECHNOLOGY AND RESEARCH, priority 2012, published 2015)
